Here are results for one compound from PMC7123187 (HCV: The Journey from Discovery to a Cure, 2018).

The target in data set [1] is recombinant wild-type NS5B (genotype 1b, Con1) (Hepatitis C virus genotype 1b, UniProt Q9WMX2). The experiment in a line: biochemical.
Data set [2] has as its system HCV genotype 1b (Con1) replicon in Huh-7. The experiment in a line: microbe, parasite or virus in culture. To be noted: Hepatitis C virus, GETYPE1B, Huh-7, read-out: potency in the replicon assays. Type of data set: cell-based. (In antiviral work, replicon cells carry a viral genome segment that copies itself.)
Data set [3] is described as follows: in vitro. Type of data set: in vitro ADME. To be noted: human, microsomes.
The test system of data set [4] is chronic HCV genotype 1 infection. To be noted: patients, cited from earlier work.
Data set [5] is described as follows: in vitro.
The next data set deals with NS5B P495L (Hepatitis C virus genotype 1b, UniProt Q9WMX2, P2914L). The experiment in a line: biochemical.
For data set [6] the following is noted: rat; for liver levels: satellite study.
The next data set has as its target CYP 3A4 (Homo sapiens, UniProt P08684). The experiment in a line: in vitro.
The subject of data set [7] is BVDV, polio, rhino, corona, coxsackie, influenza, and human immunodeficiency viruses (HIV). The data set is described as follows: organism not typed. The format is cell-based. To be noted: read-out: EC50 against panel of viruses.
A further data set can be described thus: physchem. To be noted: pKa values, zwitterionic form.
In data set [8] the target is human phosphodiesterase 4. The experiment in a line: Phosphodiesterase 4 functional assay. To be noted: read-out: IC50 phosphodiesterase 4 functional assay. The format is biochemical.
Data set [9] in a line: in vitro. To be noted: monkey, microsomes.
A further data set can be described thus: in vivo. Conditions: rat.
In data set [10] the target is human pregnane X receptor (hPXR) (Homo sapiens, UniProt O75469). Conditions: at 5.56 μM.
Sequence of human pregnane X receptor (hPXR) (O75469 whole entry): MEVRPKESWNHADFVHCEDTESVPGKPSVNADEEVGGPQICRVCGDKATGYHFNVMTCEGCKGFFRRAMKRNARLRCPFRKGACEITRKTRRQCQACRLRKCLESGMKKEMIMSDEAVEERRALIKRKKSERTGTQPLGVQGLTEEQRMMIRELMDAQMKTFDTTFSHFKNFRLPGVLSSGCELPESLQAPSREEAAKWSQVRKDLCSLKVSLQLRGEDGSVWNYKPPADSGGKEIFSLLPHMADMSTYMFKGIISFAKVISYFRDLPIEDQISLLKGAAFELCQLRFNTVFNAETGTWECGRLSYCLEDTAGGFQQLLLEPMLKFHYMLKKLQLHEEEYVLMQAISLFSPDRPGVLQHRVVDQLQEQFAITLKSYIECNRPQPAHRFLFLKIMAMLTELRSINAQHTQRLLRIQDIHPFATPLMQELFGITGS

Like-named read-outs stand apart in the source and are kept apart here.

Sequence of CYP 3A4 (P08684 whole entry): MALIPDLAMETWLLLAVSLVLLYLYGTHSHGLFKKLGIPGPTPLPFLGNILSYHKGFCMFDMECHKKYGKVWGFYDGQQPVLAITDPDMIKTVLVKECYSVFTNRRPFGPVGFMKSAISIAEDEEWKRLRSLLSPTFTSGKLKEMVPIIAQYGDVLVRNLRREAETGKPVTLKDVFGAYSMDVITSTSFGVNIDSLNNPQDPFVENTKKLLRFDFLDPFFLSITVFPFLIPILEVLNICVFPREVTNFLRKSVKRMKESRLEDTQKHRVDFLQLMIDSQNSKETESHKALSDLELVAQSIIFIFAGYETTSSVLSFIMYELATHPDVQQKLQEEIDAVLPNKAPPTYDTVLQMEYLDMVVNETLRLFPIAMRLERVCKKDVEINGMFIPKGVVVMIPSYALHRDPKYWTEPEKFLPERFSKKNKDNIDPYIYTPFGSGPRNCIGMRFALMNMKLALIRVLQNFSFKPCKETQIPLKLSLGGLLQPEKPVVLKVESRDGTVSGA

Take `COc1ccc2c(c1)[C@@H]1C[C@]1(C(=O)N1[C@@H]3CC[C@H]1CN(C)C3)Cn1c-2c(C2CCCCC2)c2ccc(C(=O)NS(=O)(=O)N(C)C)cc21` [Compound 66, beclabuvir]: the “bound to human serum” value was found to be 98%. In addition, the IC50 in data set [1] was 0.02 µM. For the same compound, the EC50 in data set [2] is below 0.01 µM. Further, the half-life in “in vitro [3]” was 53 min. In data set [4] (300 mg single dose, 24 h post-dosing), the “decline in viral load” value is on record as “approximately 2.5 log10 IU/mL”. In data set [4] (single doses 100-900 mg), the tolerability result is on record as “well tolerated”. Besides, the CC50 in “in vitro [5]” is 14 to 48 µM. On NS5B P495L, this compound registered an IC50 of 0.19 µM. Also, the liver levels in data set [6] (4 h following oral dosing) is 24,400 nM. In [6] (24 h following oral dosing), the liver levels is on record as 1,700 nM. In addition, the Cl in data set [6] (in vivo, iv, 5 mg/kg) was 3.5 (±0.8) mL/min/kg. In addition, the IC50 on CYP 3A4 was above 40 µM. Besides, in data set [7], the EC50 was above 14 µM. This compound registered a pKa in the data set “physchem” of 4.6. The IC50 in data set [8] is above 10 µM. Moreover, the half-life in the data set “in vitro [9]” came out at 23 min. In the data set “in vivo” (iv, 5 mg/kg), this compound had an AUC(0-inf) of 30 µM·h, a Cmax of 12.1 µM and a half-life of 672 min. In the data set “in vivo” (po, 10 mg/kg), this compound displayed an AUC(0-inf) of 39.3 µM·h and a Cmax of 3.26 µM. Further, the “hPXR transactivation Y max” value in [10] amounted to 8.1 ± 1.9.

Usually IC50 stands for the point on the concentration scale where inhibition reaches its midpoint. For orientation: half-life means the time in which the quantity being followed falls by half. What is called pKa is the pH at which an ionisable group is half protonated. Usually AUC(0-inf) stands for total exposure, with the tail of the curve extrapolated. Read a high AUC(0-inf) as more exposure. As a reminder, the Cmax is the highest concentration seen after dosing.
